Measured values as given in patent US20240197869A1, “HYPERACTIVATORS OF MAMMALIAN DENDRITIC CELLS” (Corner Therapeutics, Inc., priority 2021, published 2024).
Entries after “also recorded” stand apart in the source; their conditions may differ. Residues, ends and D or L forms follow the SMILES beside them. *: point of attachment. X1 = CCCCCCCCCCCCCCCC(=O)OCC(C*)OC(=O)CCCCCCCCCCCCCCC

Experiments:
[1] = test system: canine peripheral blood mononuclear cells (PBMCs); assay: IL-1β secretion by canine PBMCs (ELISA); assay type: cell-based; details: stimulus as labelled, no hyperactivating lipid, 2 days
Experimental: (§1) Isolation of PBMCs from Whole Blood. PBMCs were isolated from whole blood using density gradient centrifugation with Ficoll-Paque PLUS (Cytivia). Whole blood was diluted 1:1 with PBS, layered on top of Ficoll-Paque PLUS and centrifuged at 1000×g for 30 minutes at room temperature. PBMCs were collected, washed twice in PBS, and incubated with Ack lysis buffer (Lonza) to remove any remaining red blood cells.
(§2) Cell Culture and Stimulation. […] Cells were plated at 1×10^5 (canine cells) or 1×10^6 (human cells) per well in 96-well flat bottom tissue culture plates. Lyophilized Vaccigrade R848 (Invivogen) was reconstituted and diluted according to manufacturer's recommendations and added to cells at a final concentration of 1 μg/mL.
Quantification of Cytokine Secretion. IL-1β secretion from human PBMCs was assessed using one of the following kits: ELISA MAX Deluxe Set Human IL-1β kit (Biolegend), Invitrogen Human IL-1β kit, or the Lumit™ Human IL-1β Immunoassay (Promega). IFNγ secretion from human PBMCs was assessed using the ELISA MAX Deluxe Set Human IFNγ (Biolegend) and TNFα secretion from human PBMCs was assessed using the Human TNFα Uncoated ELISA kit (Invitrogen). […] IL-1β secretion from canine PBMCs was assessed using the Canine IL-1β/IL-1F2 DuoSet ELISA (R&D) according to manufacturer's instructions with the following modifications: i) total sample+buffer volume for incubation was reduced from 100 μL to 50 μL; ii) sample incubation was completed overnight at 4° C. on an orbital shaker. For all ELISAs, absorbance was measured at 450 nm, with a 570 nm correction, using a Spectramax M5e plate reader (Molecular Devices). For Lumit™ assays, luminescence was measured on all wavelengths using a Spectramax M5e plate reader (Molecular Devices) with an integration time of 500 ms. […]

[2] = test system: human PBMCs; assay: Cytokine secretion (IL-1β, IFNγ, TNFα) by human PBMCs; assay type: cell-based; details: 2 days
Experimental: as §1, §2
Quantification of Cytokine Secretion. IL-1β secretion from human PBMCs was assessed using one of the following kits: ELISA MAX Deluxe Set Human IL-1β kit (Biolegend), Invitrogen Human IL-1β kit, or the Lumit™ Human IL-1β Immunoassay (Promega). IFNγ secretion from human PBMCs was assessed using the ELISA MAX Deluxe Set Human IFNγ (Biolegend) and TNFα secretion from human PBMCs was assessed using the Human TNFα Uncoated ELISA kit (Invitrogen). ELISAs were performed according to manufacturer's instructions with the following modifications: i) total sample+buffer volume for incubation was reduced from 100 μL to 50 μL; ii) the top standard was prepared at […], with two-fold dilutions to […]; and iii) sample incubation was completed overnight at 4 C on an orbital shaker. Lumit™ assays were performed according to manufacturer's instructions. IL-1β secretion from canine PBMCs was assessed using the Canine IL-1β/IL-1F2 DuoSet ELISA (R&D) according to manufacturer's instructions with the following modifications: i) total sample+buffer volume for incubation was reduced from 100 μL to 50 μL; ii) sample incubation was completed overnight at 4° C. on an orbital shaker. For all ELISAs, absorbance was measured at 450 nm, with a 570 nm correction, using a Spectramax M5e plate reader (Molecular Devices). For Lumit™ assays, luminescence was measured on all wavelengths using a Spectramax M5e plate reader (Molecular Devices) with an integration time of 500 ms. To determine cytokine concentrations in supernatants, sample concentrations were interpolated using a standard curve via 4PL analysis on GraphPad Prism 9 (GraphPad Software). The interpolated results of samples were then adjusted for any dilutions made to the supernatant.

[3] = test system: human monocyte-derived dendritic cells (moDCs); assay: DAMP screen: IL-1β secretion by LPS-activated human moDCs (ELISA); assay type: cell-based
Experimental: Danger-Associated Molecular Pattern (DAMP) Screen.
(§3) Quantification of IL-1beta Secretion. IL-1beta secretion was assessed using the ELISA MAX Deluxe Set Human IL-1beta kit (Biolegend). ELISAs were performed according to manufacturer's instructions with the following modifications: i) total sample volume for incubation was reduced from […] the top standard was prepared at […], with two-fold dilutions to […]; and iii) sample incubation was completed overnight at 4 C on an orbital shaker. […] To determine IL-1beta concentration in supernatants, sample IL-1beta concentrations were interpolated using a standard curve via 4PL analysis on GraphPad Prism 9 (GraphPad Software). The interpolated results of samples were then adjusted for any dilutions made to the supernatant.

[4] = test system: human monocyte-derived dendritic cells (moDCs); assay: Lipid titration: IL-1β secretion by LPS-activated human moDCs; assay type: cell-based; details: for Activity Units (AU) ± SD (lipid activity index): reciprocal of lowest concentration giving IL-1β two-fold over LPS x highest IL-1β signal, lipid 1.3-82.5 μM + LPS
Experimental: as §3

[5] = test system: human memory CD4+ T cells; assay: Human moDC coculture with memory CD4 T cells: cytokine secretion; assay type: cell-based; details: moDC treated with R848 + lipid; limiting anti-CD3; 2 days after T cell addition
Excerpt: Human moDC coculture with memory CD4 T cells. Human monocytes were isolated from leukopheresis products using Miltenyi StraightFrom LeukoPak CD14 microbeads as directed by manufacturer. Custom PBMC isolation microbead kits from Miltenyi were used to separate PBMCs from red blood cells and granulocytes from the same blood products. After PBMC purification, Miltenyi human memory CD4+ T cell isolation kits were used to negatively select the CD45RO+ fraction. Cells were cryogenically stored until ready for use in experiments.
Human monocytes were differentiated into dendritic cells as previously described using recombinant human GM-CSF and IL-4 for 6 days. moDCs were plated in R10 media at 5E4 cells/well into 96-well U-bottom microplates for hyperactivations. […] T cell stimulating anti-CD3 antibody was added into the culture (with or without blocking anti-IL-1beta antibody) prior to T cell addition. Autologous frozen memory CD4 T cells were thawed, resuspended in R10 media and added at 2.5×10^5 cells/well (ratio 1:5, DC:T cell). After two days incubation, cell culture supernatant was collected and used for measuring cytokine secretion. Commercially available kits such as Biolegend LegendPlex kits were used as directed by manufacturer's protocol to quantify cytokines of interest.
Four donors were tested with each experimental condition tested in triplicate. […]

[6] = test system: human monocyte-derived dendritic cells (moDCs); assay: DAMP screen: viability of human moDCs (CellTiter-Glo)
[7] = test system: human monocyte-derived dendritic cells (moDCs); assay: Lipid titration: viability of human moDCs (CellTiter-Glo)
Experimental: Lipid Titration. After 6 days of differentiation into moDC, cells were collected and counted. Cells were replated at 100,000 cells/well in R10 media in 96-well flat bottom tissue culture-treated plates. LPS, serotype 055:B5 (Enzo Life Sciences) was added to a final concentration of 1 μg/mL in each well. After the addition of LPS, lipids were prepared. […] After two days of culture, cell cultures were used for endpoint analyses.
Endpoint Analyses. After culturing moDCs with PAMPs and DAMPs for two days, supernatant and cell samples were collected for analysis. Cells in culture were pelleted by centrifugation at 400×g for 5 min.
Quantification of Cell Viability. Cell viability was assessed by quantifying the presence of ATP as an indicator of metabolically active cells using the CellTiter-Glo Luminescent Cell Viability Assay (Promega). Metabolic activity was assessed following manufacturer's instructions. The CellTiter-Glo reagent was mixed with the cell pellets and remaining supernatant, and transferred to a white, opaque 96-well plate. Luminescence was measured on all wavelengths on a Spectramax iD3 plate reader (Molecular Devices) using an integration time of 500 ms. Percent viability was calculated relative to the control condition of moDCs treated with LPS.
Statistical Analyses. […] For each tested condition, cells from each donor were plated to be tested in triplicate.

[8] = test system: canine peripheral blood mononuclear cells (PBMCs); assay: Viability of canine PBMCs (CellTiter-Glo); assay type: cell-based; details: lipid combined with R848, 2 days; relative to R848 alone
Experimental: as §1, §2
(§4) Quantification of Cell Viability.

[9] = test system: human PBMCs; assay: Viability of human PBMCs (CellTiter-Glo); assay type: cell-based; details: 2 days post-activation; lipids combined with R848
Experimental: as §1, §2, §4

[10] = test system: non-human primate PBMCs; assay: Cytokine secretion by non-human primate PBMCs (LegendPlex); assay type: cell-based, cynomolgus macaques
Experimental: Non-human primate PBMC hyperactivation. Whole blood from cynomolgus macaques was diluted with an equal volume of PBS. A solution of 90% Ficoll-Paque PLUS and 10% RPMI was made, and diluted whole blood was overlayed on top of the diluted Ficoll. Cells were centrifuged at 1000 rcf for 30 minutes at room temperature with no brakes. The buffy coat layer was collected and washed twice with PBS. If red blood cell contamination was present, cells were incubated in ACK lysis buffer for 2 minutes before being washed with PBS to remove lysed red blood cells.
Isolated PBMC were plated at 1×10^6 cells/well and cultured with or without hyperactivating stimuli. After 2 days incubation, cells were assessed for viability, and cell culture supernatant was used to measure cytokine output. Commercially available kits such as Biolegend LegendPlex kits were used as directed by manufacturer's protocol to quantify cytokines of interest.
PBMC were obtained from 13 cynomolgus macaques. Each activation condition was tested in triplicate, and the mean value of the triplicate is graphed for the animal sample. Repeated measures one-way ANOVA was used to test for statistical significance followed by Dunnett's multiple comparisons test.

[11] = test system: human monocyte-derived dendritic cells (moDCs); assay: PAMP screen: IL-1β secretion by human moDCs with PRR agonist and 22:0 Lyso PC; assay type: cell-based; details: 2 days
Experimental: (§5) Pathogen-Associated Molecular Pattern (PAMP) Screen. Innate immune signaling pathway agonists were purchased from Invivogen. Lyophilized stocks were reconstituted and stored according to manufacturer's instructions and at recommended concentrations. […] Innate immune signaling agonists were diluted in R10 media to the manufacturer's recommended working concentration and then added onto cells. 22:0 Lyso PC was then reconstituted from a lyophilized stock in R10 and then further diluted. The lipid was added onto cells at a final concentration of 20 μM. Cells were incubated for 2 days, then cultures were collected for endpoint analyses.
as §3

[12] = test system: human monocyte-derived dendritic cells (moDCs); assay: PAMP screen: viability of human moDCs with PRR agonist and 22:0 Lyso PC; assay type: cell-based; details: 2 days
Experimental: as §5, §4

[13] = stimulus as labelled, no hyperactivating lipid
[14] = 41.3 μM lipid + LPS 1 μg/mL, 2 days, Table 1-2
[15] = 82.5 μM lipid + LPS, selected lipids, Table 1-3 (repeats Table 1-1)
[16] = 10.3 μM lipid + LPS 1 μg/mL, 2 days, Table 1-5
[17] = 20.6 μM lipid + LPS, human moDCs, 4 donors, mean (SD in wrapped line below)
[18] = 41.3 μM lipid + LPS 1 μg/mL, 2 days, relative to LPS-treated moDCs, Table 1-2
[19] = 82.5 μM lipid + LPS 1 μg/mL, 2 days, relative to LPS-treated moDCs, Table 1-1
[20] = 10.3 μM lipid + LPS 1 μg/mL, 2 days, relative to LPS-treated moDCs, Table 1-5
[21] = 82.5 uM lipid + R848 vs R848 alone, 2 days
[22] = high dose PAMP + 22:0 Lyso PC 20 μM

Compound | IL-1β secretion (in words) [1] | IFNγ secretion, fold change relative to R848 alone (in words) [2, 13] | IL-1β secretion [3, 14] [pg/mL] | IL-1β secretion [3, 15] [pg/mL] | IL-1β secretion [4, 16] [pg/mL] | IL-1β secretion [4, 17] [pg/mL] | Activity Units (AU) ± SD (lipid activity index) [4] [AU] | Relative Viability (%) ± SD [6, 18] [%] | Relative Viability (%) ± SD [6, 19] [%] | Relative Viability (%) ± SD [6, 15] [%] | Relative Viability (%) ± SD [7, 20] [%] | other results
Nc1nc2c(ncn2[C@@H]2O[C@@H]3COP(=O)(O)O[C@H]4[C@@H](O)[C@H](n5cnc6c(N)ncnc65)O[C@@H]4COP(=O)(O)O[C@@H]2[C@@H]3O)c(=O)[nH]1 [2′3′cGAMP, reference compound] | neither GM-CSF nor 2′3′cGAMP induced significant IL-1β secretion | neither GM-CSF nor 2′3′cGAMP elicited a substantial fold change in IFNγ secretion over R848 alone |  |  |  |  |  |  |  |  |  | 
CCCCCCCCCC(=O)OC[C@@H](O)COP(=O)([O-])OCC[N+](C)(C)C [10:0 LYSO PC] |  |  | 33.3 | 37.8 | 35.7 | 35.2 | 0.00 ± 0.00 | 97.8 | 95.2 | 95.2 | 100.5 | IFN-gamma (Th1 response) from cocultured memory CD4 T cells (in words) [5]: not detected; Relative Viability (%) ± SD ([7]; 20.6 μM lipid + LPS, human moDCs, 4 donors, relative to LPS alone): 100.4%
CCCCCCCCCCCCCCCC(=O)OC[C@H](COP(=O)([O-])OCC[N+](C)(C)C)OC(=O)CCCC(=O)O [PGPC, 1-palmitoyl-2-glutaryl-sn-glycero-3-phosphocholine, reference compound] |  |  | 132.9 | 271.6 | 52.8 | 69.2 | 3.46 ± 4.14 | 87.2 | 58.6 | 58.6 | 98.5 | relative cell viability (in words) [8]: somewhat toxic to canine PBMCs; IL-1β secretion (in words) ([2]; lipid 82.5 μM combined with R848 1 μg/mL): did not induce substantially higher levels of IL-1β than R848 alone; human PBMC viability (in words) [9]: not observed to be toxic; cytokine fold changes relative to R848 alone (in words) ([10]; 41.3 uM lipid + R848): not as markedly increased; IL-1beta output (in words) ([10]; 82.5 uM lipid + R848 1 μg/mL vs R848 alone, 2 days): increased the IL-1beta output; IFN-beta secretion (in words) [10, 21]: increased; IFN-gamma secretion (in words) [10, 21]: significantly increased; IL-8 secretion (in words) [10, 21]: increased; IL-17a secretion (in words) [10, 21]: increased; IL-23 secretion (in words) [10, 21]: increased; moDC viability (in words) ([6]; human moDCs, lipid screens of Example 1): not observed to be toxic
CCCCCCCCCCCCCCCC(=O)OCC(CSC[C@H](N)C(=O)N[C@@H](CO)C(=O)N[C@@H](CCCCN)C(=O)N[C@@H](CCCCN)C(=O)N[C@@H](CCCCN)C(=O)N[C@@H](CCCCN)C(=O)O)OC(=O)CCCCCCCCCCCCCCC (stereo partly shown) [Pam2CSK4] (H-C(X1)SKKKK-OH; N-terminus and C-terminus assumed) |  |  |  |  |  |  |  |  |  |  |  | IL-1β secretion (in words) [11, 22]: enabled IL-1β secretion; also recorded: induced IL-1β secretion; IL-1β secretion (in words) ([11]; low dose PAMP + 22:0 Lyso PC): IL-1β secretion was only observed; cell viability (in words) [12, 22]: little to no effect on cell viability; cell viability (in words) ([12]; low dose PAMP + 22:0 Lyso PC): Neither R848 nor Pam2CSK4 at the lower concentrations tested affected cell viability
GM-CSF: human GM-CSF (Peprotech), added at 10 ng/mL | neither GM-CSF nor 2′3′cGAMP induced significant IL-1β secretion | neither GM-CSF nor 2′3′cGAMP elicited a substantial fold change in IFNγ secretion over R848 alone |  |  |  |  |  |  |  |  |  | IL-1β secretion (in words) [2, 13]: did not induce levels of IL-1β secretion from human PBMCs significantly above background levels
